Values of other authors in US20250281435A1, “CHEWABLE GUMMY CONTAINING BETA-HYDROXY BETA-METHYLBUTYRIC ACID (HMB)” (Concept Matrix Solutions, priority 2024, published 2025).

Settings: oral ingestion

Compound: CC(C)(O)CC(=O)O [HMB, 3-hydroxy-3-methylbutanoic acid]
- time of peak plasma concentration after ingestion: 1 to 2 h
